Results from patent US7723370B2, “1, 2-diaryl pyrazoles useful as analgetic and antiinflammatory agents” (Richter Gedeon Vegyeszeti Gyar RT., priority 2005, dated 2010).
Where “and” joins values, the source holds several entries; their conditions need not be identical. Equal values may be shown once. Marks after values point to notes of the source that are not given here.

Experiments:
Assay type in all cases: in vivo, rat
[1] = test system: carrageenan induced paw oedema; experiment: Inhibition of carrageenan induced oedema in rats; settings: for ED30: p.o.
Protocol: The treated paw was immersed up to the tibio-tarsal articulation into the chamber and the volume of displaced liquid was determined as the degree of the inflammation. Degree of inflammation (ml)=volume after the CARR treatment (ml)−volume before the CARR treatment (ml)
The degree of the anti-inflammatory effect of the treated group (which obtained test agent) was compared to that of the control group (which obtained only vehicle). The test compound and the vehicle were given orally by blunt-ended needle cannula one hour before the CARR treatment. The volume of the treated paw was measured at 3 and 5 hours after the CARR treatment and the change in the degree of inflammation in % was calculated according to the following formula: Anti-inflammatory activity %=100×[control group (ml)−treated group (ml)/control group (ml)]
[…] Anti-inflammatory activity of the compounds was determined in % at 4 and 6 hours after p.o. treatment and ED30 was calculated.

[2] = test system: carrageenan induced acute hyperalgesia; experiment: Carrageenan induced acute hyperalgesia in rats (Randall-Selitto model)
Protocol: (§1) Oedema (inflammation) was induced by subcutaneous injection of carrageenan (CARR) suspension in the subplantar region of the right hind paw of male Wistar rats, weighted 140-190 g (n=8-12 animal/group). The nociceptive thresholds of the inflamed hind paw after painful mechanical stimuli were measured with analgesimeter (Ugo Basile, type: 37215, Italy). The apparatus is suitable for the measuring of the extent and the latency of the pain reaction threshold of the sensitized paw after painful stimuli. The analgesics elevate the low pain reaction threshold of inflamed paw and the degree of its antinociceptive effect is expressed in reversal %.
(§2) An increasing pressure was applied to the paw and the withdrawal threshold was determined as the first sign (squeaking and/or struggling) of pain response. The pressure threshold was shown in grams. The average value of the hind paw withdrawal obtained with untreated right paw was regarded as the basal hind paw withdrawal (average 80-110 grams.) After determining the baseline threshold the animals received carrageenan injection that produced an intense inflammation associated with hyperalgesia. The mechanical threshold was determined at various times to establish the magnitude and duration of the hyperalgesia. The maximum reduction in threshold was measured 2-3 h after injection (the pain threshold of the inflamed paw is 20-30 g, which was decreased by 65-80% in comparing to the basic value).
(§3) Acute hvneralgesia model: the animals were treated with the test compounds and celecoxib (10 and 30 mg/kg p.o.) one hour after CARR treatment (100 μl 2% suspension). Pain threshold was measured at 2 and 4 hours after the treatment. Chronic hyperalgesia model: extended inflammation and decreased pain threshold were induced with higher dose of CARR. Pain threshold of inflamed paw was measured 24 hours after CARR treatment (150 μl, 2% suspension) then test compound and Celecoxib (30 mg/kg p.o.) were given to the animals. Pain threshold of treated paw was measured from 30 minutes till 3 hours after treatment.
(§4) Control groups in both models after CARR treatment were treated with vehicle p.o. at the same intervals as the test compounds. In both models the analgesic effect of the compounds was expressed in the reversal (%) of the decrease of the pain threshold. Reversal %=[mean of treated groupTxh(g)−treated groupT0h(g)]/[basic mean of treated groupT-1h(g)−treated groupT0h(g)] • T−1 h=mean of the pain threshold of paw before CARR treatment in acute model (g) • T0h=mean of the pain threshold before treatment 1 hour after CARR treatment in acute model (g) • T×h=pain threshold after CARR treatment in the measuring times (1 h, 2 h, 3 h) in acute model (g)

[3] = test system: carrageenan induced chronic hyperalgesia; experiment: Carrageenan induced chronic hyperalgesia model in rats (Randall-Selitto)
Protocol: as §1, §2, §3, §4

[4] = test system: alcohol induced mucosa injury; experiment: Gastric lesions induced by acidified alcohol in rats; settings: for Ulcer index: 40 minutes before ethanol+HCl, n = 10
Protocol: Male Wistar rats weighing 140-160 g were treated p.o. with a 1:0.02 mixture of dry ethanol and concentrated HCl (0.5 ml) in order to induce gastric lesions. One hour later the animals were euthanized with ether and the stomach excised along its greater curvature, the mucosa was examined for the presence of lesions.
Severity of lesions: • 1: petechiae or erosion with length of 1 mm • 2: erosion with length between 2 and 3 mm • 3: erosion with length between 3 and 4 mm • 4: erosion with length between 4 and 5 mm
If the lesion was longer than 5 mm, it was scored 4 point as many times as the total length of the lesion divisible by four and the rest of the length was evaluated according to the above scale. The degree of injury of mucosa was characterized by ulcer index. Ulcer index (severity of lesion×number of lesion) was calculated for every animal and the degree of injury of mucosa in the groups of tested animals was characterized by the mean of ulcer index of different groups of animals.
Test compounds were given p.o. 40 minutes before the ethanol+HCl treatment

[5] = test system: acetic acid induced chronic gastric ulcer; experiment: Acetic acid induced chronic gastric ulcer in rats; settings: for Area of ulcer (mm^2) / Change of bodyweight (g) + (increase) − (decrease): 30 mg/kg p.o. for seven days; for Recovery of acetic acid induced ulcer: p.o. for seven days
Protocol: In our experiments the method […] of Okabe et al was used. Male Wistar rats of 150-170 g were narcotize part of the stomach.
The test compound was given p.o. on the fifth day after the operation for seven days. The animals were euthanized with ether after 24 hours of the last dose and the abdomen was macroscopically examined (exravasation, accretion), the stomach was excised and the diameters of ulcers were measured.

[6] = test system: carrageenan induced chronic hyperalgesia; experiment: Carrageenan induced chronic hyperalgesia model in rats (Randall-Selitto); remark: listed apart in the source
[7] = test system: myocardial ischemia-reperfusion induced injury; experiment: Myocardial ischemia-reperfusion induced injury in rats (cardioprotective effect); settings: 30 mg/kg i.p. 30 minutes before occlusion; control group 90%
Protocol: Effect of compound of Example 5 and celecoxib was determined in experimental myocardial ischemia-reperfusion induced injury.
Myocardial infarction was produced in male, SPRD CFY rats of 300-360 g by surgical occlusion of left anterior descending coronary artery. Briefly, the animals were anesthetized with pentobarbital (60 mg/kg i.p.) and the chest was opened, the left coronary artery was ligated for 6 minutes followed by reperfusion. Test compounds were administered i.p. in 30 and 60 mg/kg dose 30 minutes before occlusion of the coronary artery. The control group was treated with vehicle (5% TWEEN 80 in isotonic NaCl, […]).

[8] = 3 mg/kg p.o., 4 hours after treatment
[9] = 3 mg/kg p.o., 6 hours after treatment
[10] = 10 mg/kg p.o., 4 hours after treatment
[11] = 10 mg/kg p.o., 6 hours after treatment
[12] = 30 mg/kg p.o., 4 hours after treatment
[13] = 30 mg/kg p.o., 6 hours after treatment
[14] = chronic model, 30 mg/kg p.o., 30 min
[15] = chronic model, 30 mg/kg p.o., 1 hour
[16] = chronic model, 30 mg/kg p.o., 2 hour
[17] = chronic model, 30 mg/kg p.o., 3 hour
[18] = inflammation induced chronic hyperalgesia model

Compound | Inhibiton of carrageenan induced edema % [1, 8] | Inhibiton of carrageenan induced edema % [1, 9] | Inhibiton of carrageenan induced edema % [1, 10] | Inhibiton of carrageenan induced edema % [1, 11] | Inhibiton of carrageenan induced edema % [1, 12] | Inhibiton of carrageenan induced edema % [1, 13] | ED30 ([1]; 4 hours after treatment) | ED30 ([1]; 6 hours after treatment) | Analgesic effect (reversal %) after p.o. treatment ([2]; 10 mg/kg p.o., 1 hour) | Analgesic effect (reversal %) after p.o. treatment ([2]; 10 mg/kg p.o., 2 hour) | Analgesic effect (reversal %) after p.o. treatment ([2]; 10 mg/kg p.o., 3 hour) | Analgesic effect (reversal %) after p.o. treatment ([2]; 30 mg/kg p.o., 1 hour) | Analgesic effect (reversal %) after p.o. treatment ([2]; 30 mg/kg p.o., 2 hour) | Analgesic effect (reversal %) after p.o. treatment ([2]; 30 mg/kg p.o., 3 hour) | Analgesic effect (reversal %) after p.o. treatment [3, 14] | Analgesic effect (reversal %) after p.o. treatment [3, 15] | Analgesic effect (reversal %) after p.o. treatment [3, 16] | Analgesic effect (reversal %) after p.o. treatment [3, 17] | Ulcer index ([4]; 15 mg/kg p.o.) | Ulcer index ([4]; 30 mg/kg p.o.) | further results
Cc1ccc(-c2cc(C(F)(F)F)nn2-c2ccc(S(N)(=O)=O)cc2)cc1 [Celecoxib, reference compound] | 16 ± 3% | 12 ± 4% | 24 ± 4% | 18 ± 2% | 32 ± 5% | 26 ± 4% | 23 mg/kg and 23.0 mg/kg | >30 mg/kg | 0% | 0% | 0% | 24% | 3% | 0% | 54% | 34% | 34% | 26% | 80.6 ± 2.3 | 49.4 ± 4.5 | anti-inflammatory activity as compared to the control group ([1]; 6 hours after the treatment): less than 30%; analgesic effect, reversal ([2]; 30 mg/kg p.o., time not stated): 24%; analgesic effect, reversal ([3]; chronic model, 30 mg/kg p.o., time not stated): 54%; Ulcer index ([4]; 60 mg/kg p.o.): 44.4 ± 6.4; effect on alcohol induced mucosa injury ([4]; p.o.): inhibited the alcohol induced mucosa injury; Area of ulcer (mm^2) [5]: 8.2 ± 2.0* mm^2; Change of bodyweight (g) + (increase) − (decrease) [5]: +32 ± 4 g; Recovery of acetic acid induced ulcer [5]: inhibited significantly; Analgesic effect (reversal %) after p.o. treatment ([6]; 10 mg/kg p.o., 30 min): 24%; Analgesic effect (reversal %) after p.o. treatment ([6]; 10 mg/kg p.o., 1 hour): 17%; Analgesic effect (reversal %) after p.o. treatment ([6]; 10 mg/kg p.o., 2 hour): 0%; Analgesic effect (reversal %) after p.o. treatment ([6]; 30 mg/kg p.o., 4 hour): 20%
Cc1ccc(-c2cc(C(F)(F)F)nn2-c2ccc(S(=O)(=O)NOC(C)C(=O)O)cc2)cc1 (racemic) [Example 5, (R,S)-2-[4-(5-p-methylphenyl-3-trifluoromethyl-pyrazol-1-yl)-benzensulfonylamino-oxy]-propionic acid] | 21 ± 3% | 20 ± 3% | 40 ± 4% | 34 ± 5% | 49 ± 5% | 40 ± 4% | 5.7 mg/kg | 8.4 mg/kg | 24% | 30% | 15% | 89% | 59% | 35% | 42% | 54% | 34% | 19% | 43.0 ± 4.4 | 35.0 ± 4.4 | anti-inflammatory activity compared with celecoxib ([1]; CARR induced oedema test): significantly (p<0.05) higher; analgesic effect [3, 18]: significant analgesic effect (p<0.01); duration of action compared with the reference compound [3, 18]: several hours longer; Ulcer index ([4]; 60 mg/kg p.o.): 15.8 ± 2.8; Area of ulcer (mm^2) [5]: 2.4 ± 0.7 mm^2; Change of bodyweight (g) + (increase) − (decrease) [5]: +43 ± 5 g; Recovery of acetic acid induced ulcer [5]: did not influence it; occurrence of serious, not mortal ventricular fibrillation during reperfusion [7]: 60%; Analgesic effect (reversal %) after p.o. treatment ([6]; 10 mg/kg p.o., 30 min): 23%; Analgesic effect (reversal %) after p.o. treatment ([6]; 10 mg/kg p.o., 1 hour): 22%; Analgesic effect (reversal %) after p.o. treatment ([6]; 10 mg/kg p.o., 2 hour): 28%; Analgesic effect (reversal %) after p.o. treatment ([6]; 10 mg/kg p.o., 3 hour): 14%; Analgesic effect (reversal %) after p.o. treatment ([6]; 10 mg/kg p.o., 4 hour): 11%; Analgesic effect (reversal %) after p.o. treatment ([6]; 30 mg/kg p.o., 4 hour): 19%
